# Activity calls are given as the source filed them. The rule behind the calls is not given here.
# Legend:
# [1] = Metal chelating activity assessed as compound-Cu2+ complex formation at 37.5 uM in presence of CuCl2 after 30 mins by UV-visible spectrophotometric analysis; assay type: functional
# [2] = target: butyrylcholinesterase (BuChE) (Rattus norvegicus, UniProt Q9JKC1); test: Inhibition of BuChE in rat serum at 50 uM using butyrylthiocholine as substrate measured after 15 mins by Ellman's method relative to control; settings: probe butyrylthiocholine
# butyrylcholinesterase (BuChE), sequence (Q9JKC1 whole entry): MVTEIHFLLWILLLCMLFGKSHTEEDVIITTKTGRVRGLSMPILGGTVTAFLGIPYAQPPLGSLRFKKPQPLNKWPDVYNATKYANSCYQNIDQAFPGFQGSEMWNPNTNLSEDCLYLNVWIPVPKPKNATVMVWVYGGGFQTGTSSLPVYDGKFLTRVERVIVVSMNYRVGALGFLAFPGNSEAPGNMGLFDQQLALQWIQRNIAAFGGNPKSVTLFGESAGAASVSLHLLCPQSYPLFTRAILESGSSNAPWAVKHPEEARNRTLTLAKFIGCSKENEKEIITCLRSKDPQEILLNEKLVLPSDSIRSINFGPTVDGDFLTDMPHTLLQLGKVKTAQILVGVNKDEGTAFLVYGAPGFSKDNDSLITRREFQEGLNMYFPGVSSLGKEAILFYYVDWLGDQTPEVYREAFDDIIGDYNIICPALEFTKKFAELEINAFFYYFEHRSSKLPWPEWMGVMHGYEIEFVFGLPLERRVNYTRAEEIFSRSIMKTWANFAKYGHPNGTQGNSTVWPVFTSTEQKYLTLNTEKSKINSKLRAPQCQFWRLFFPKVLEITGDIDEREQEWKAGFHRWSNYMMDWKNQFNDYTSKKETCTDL
# Acetylcholinesterase [3] = target: T1, Acetylcholinesterase (Electrophorus electricus, UniProt O42275); test: Mixed-type inhibition of Electrophorus electricus AChE pretreated for 15 mins followed by varying levels of acetylthiocholine iodide substrate addition by Lineweaver-Burk plot analysis
# T1 sequence (O42275 whole entry): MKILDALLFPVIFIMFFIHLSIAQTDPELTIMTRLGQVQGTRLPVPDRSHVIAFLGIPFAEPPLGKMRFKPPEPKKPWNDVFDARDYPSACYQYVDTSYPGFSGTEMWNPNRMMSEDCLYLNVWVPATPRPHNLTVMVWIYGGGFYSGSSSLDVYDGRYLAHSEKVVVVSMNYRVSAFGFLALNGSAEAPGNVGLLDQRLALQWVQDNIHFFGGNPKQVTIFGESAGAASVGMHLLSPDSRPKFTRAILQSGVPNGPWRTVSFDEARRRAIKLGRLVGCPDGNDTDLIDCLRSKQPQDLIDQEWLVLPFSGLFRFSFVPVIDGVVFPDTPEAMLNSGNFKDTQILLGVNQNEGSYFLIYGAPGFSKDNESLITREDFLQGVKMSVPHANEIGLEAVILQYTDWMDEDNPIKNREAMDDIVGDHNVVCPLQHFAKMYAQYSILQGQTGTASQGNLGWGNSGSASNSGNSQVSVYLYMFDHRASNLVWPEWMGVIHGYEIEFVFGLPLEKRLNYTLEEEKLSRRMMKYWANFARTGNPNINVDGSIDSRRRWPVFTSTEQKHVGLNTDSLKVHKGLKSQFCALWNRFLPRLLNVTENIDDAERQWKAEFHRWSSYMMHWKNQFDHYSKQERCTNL
# [4] = Metal chelating activity assessed as compound-Al3+ complex formation at 37.5 uM in presence of AlCl3 after 30 mins by UV-visible spectrophotometric analysis; assay type: functional
# [5] = Permeability of compound at 100 ug/ml after 18 hrs by PAMPA; assay type: physicochemical; settings: read-out: permeability
# [6] = Inhibition of Cu2+-mediated aggregation of human amyloid beta (1 to 42 residues) at 25 uM after 24 hrs by thioflavin T-based fluorometric assay relative to control; assay type: functional
# Acetylcholinesterase [7] = target: Acetylcholinesterase (Homo sapiens, UniProt P22303); test: Inhibition of human erythrocyte AChE using acetylthiocholine iodide as substrate measured after 15 mins by Ellman's method
# Acetylcholinesterase (Homo sapiens, UniProt P22303), sequence (P22303 whole entry): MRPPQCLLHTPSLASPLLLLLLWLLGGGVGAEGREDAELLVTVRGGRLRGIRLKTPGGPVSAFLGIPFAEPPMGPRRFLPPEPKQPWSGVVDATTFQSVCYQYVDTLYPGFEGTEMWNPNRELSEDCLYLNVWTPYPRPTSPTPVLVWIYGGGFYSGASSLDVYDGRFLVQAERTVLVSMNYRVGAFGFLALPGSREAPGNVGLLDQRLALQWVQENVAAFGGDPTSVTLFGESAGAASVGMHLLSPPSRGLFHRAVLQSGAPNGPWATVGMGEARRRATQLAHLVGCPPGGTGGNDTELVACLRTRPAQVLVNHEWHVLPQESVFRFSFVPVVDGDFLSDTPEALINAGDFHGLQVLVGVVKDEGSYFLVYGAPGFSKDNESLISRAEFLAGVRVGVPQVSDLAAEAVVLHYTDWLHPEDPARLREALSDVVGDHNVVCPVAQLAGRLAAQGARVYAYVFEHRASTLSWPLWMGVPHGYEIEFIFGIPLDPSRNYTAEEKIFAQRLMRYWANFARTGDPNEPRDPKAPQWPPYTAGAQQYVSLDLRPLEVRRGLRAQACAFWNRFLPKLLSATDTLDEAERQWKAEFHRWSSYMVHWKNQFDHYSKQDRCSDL
# [8] = Metal chelating activity assessed as compound-Fe2+ complex formation at 37.5 uM in presence of FeSO4 after 30 mins by UV-visible spectrophotometric analysis; assay type: functional
# [9] = Metal chelating activity assessed as mole fraction of compound required to show 2:1 stoichiometry for Cu2+-compound complex at 37.5 uM after 30 mins by UV-vis spectrophotometric method; assay type: functional
# PC-12 [10] = test: Neuroprotective activity against H2O2-induced damage in rat PC12 cells assessed as increase in cell viability at 1 to 50 uM pretreated for 2 hrs followed by H2O2 challenge measured after 24 hrs by MTT assay; assay type: functional, cell-based
# [11] = target: Amyloid-beta precursor protein (Homo sapiens) (UniProt P05067); test: Inhibition of self-induced aggregation of HFIP-treated human amyloid beta (1 to 42 residues) at 25 uM after 24 hrs by thioflavin T-based fluorometric assay relative to control
# Amyloid-beta precursor protein (Homo sapiens), sequence (P05067 whole entry, the tested form may be a part): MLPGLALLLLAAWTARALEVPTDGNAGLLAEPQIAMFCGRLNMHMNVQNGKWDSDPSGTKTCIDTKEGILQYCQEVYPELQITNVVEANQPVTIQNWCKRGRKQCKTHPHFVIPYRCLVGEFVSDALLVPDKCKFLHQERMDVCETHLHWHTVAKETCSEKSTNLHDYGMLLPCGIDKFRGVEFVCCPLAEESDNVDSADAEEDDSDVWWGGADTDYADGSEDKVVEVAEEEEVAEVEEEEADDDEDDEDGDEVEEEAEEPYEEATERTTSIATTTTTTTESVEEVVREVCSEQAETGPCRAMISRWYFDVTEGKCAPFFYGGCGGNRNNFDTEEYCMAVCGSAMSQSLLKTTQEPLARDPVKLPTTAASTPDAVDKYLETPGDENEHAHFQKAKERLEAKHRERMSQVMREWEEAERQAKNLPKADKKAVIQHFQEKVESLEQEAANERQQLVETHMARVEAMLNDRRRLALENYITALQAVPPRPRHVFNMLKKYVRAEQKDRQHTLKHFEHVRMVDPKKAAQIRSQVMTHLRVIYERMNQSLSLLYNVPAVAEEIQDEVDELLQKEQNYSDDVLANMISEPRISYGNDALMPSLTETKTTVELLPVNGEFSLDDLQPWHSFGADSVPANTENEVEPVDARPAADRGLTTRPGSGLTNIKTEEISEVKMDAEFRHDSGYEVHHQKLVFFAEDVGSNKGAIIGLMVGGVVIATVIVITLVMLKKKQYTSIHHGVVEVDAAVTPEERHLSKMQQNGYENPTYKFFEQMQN
# Acetylcholinesterase [12] = target: T1, Acetylcholinesterase; test: Inhibition of Electrophorus electricus AChE using acetylthiocholine iodide as substrate measured after 15 mins by Ellman's method
# PC-12 [13] = test: Neuroprotective activity against H2O2-induced damage in rat PC12 cells assessed as reduction in LDH release at 0.1 to 50 uM pretreated for 2 hrs followed by H2O2 challenge measured after 24 hrs; assay type: functional, cell-based
# [14] = Metal chelating activity assessed as compound-Zn2+ complex formation at 37.5 uM in presence of ZnCl2 after 30 mins by UV-visible spectrophotometric analysis; assay type: functional
# PC-12 [15] = test: Cytotoxicity against rat PC12 cells at <50 uM measured after 48 hrs by MTT assay; assay type: cell-based; settings: pc-12, 48 h
# [16] = target: T2, Amine oxidase [flavin-containing] A (Homo sapiens, UniProt P21397); test: Inhibition of recombinant human MAO-A expressed in baculovirus infected BTI insect cells at 10 uM using kynuramine as substrate incubated for 30 mins by fluorescence assay relative to control; settings: 0.5 h
# T2 sequence (P21397 whole entry): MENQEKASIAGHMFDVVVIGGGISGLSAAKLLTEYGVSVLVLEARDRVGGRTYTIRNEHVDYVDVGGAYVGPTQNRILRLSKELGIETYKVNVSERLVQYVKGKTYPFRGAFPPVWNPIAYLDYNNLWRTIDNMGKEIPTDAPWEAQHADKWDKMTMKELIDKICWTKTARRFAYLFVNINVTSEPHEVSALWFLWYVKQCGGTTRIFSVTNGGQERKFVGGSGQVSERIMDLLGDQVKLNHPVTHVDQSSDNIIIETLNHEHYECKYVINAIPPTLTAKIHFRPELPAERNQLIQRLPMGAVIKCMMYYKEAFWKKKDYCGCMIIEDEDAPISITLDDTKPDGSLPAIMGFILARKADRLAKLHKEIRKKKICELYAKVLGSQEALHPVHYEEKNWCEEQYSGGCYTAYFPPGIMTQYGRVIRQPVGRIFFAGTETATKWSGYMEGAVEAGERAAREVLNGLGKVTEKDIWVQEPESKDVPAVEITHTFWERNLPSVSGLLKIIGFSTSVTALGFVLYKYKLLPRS
# Acetylcholinesterase [17] = target: T3, Acetylcholinesterase (Rattus norvegicus, UniProt P37136); test: Inhibition of AChE in rat brain cortex homogenates using acetylthiocholine iodide as substrate in presence of BuChE inhibitor tetraisopropyl pyrophosphoramide measured after 15 mins by Ellman's method
# T3 sequence (P37136 whole entry): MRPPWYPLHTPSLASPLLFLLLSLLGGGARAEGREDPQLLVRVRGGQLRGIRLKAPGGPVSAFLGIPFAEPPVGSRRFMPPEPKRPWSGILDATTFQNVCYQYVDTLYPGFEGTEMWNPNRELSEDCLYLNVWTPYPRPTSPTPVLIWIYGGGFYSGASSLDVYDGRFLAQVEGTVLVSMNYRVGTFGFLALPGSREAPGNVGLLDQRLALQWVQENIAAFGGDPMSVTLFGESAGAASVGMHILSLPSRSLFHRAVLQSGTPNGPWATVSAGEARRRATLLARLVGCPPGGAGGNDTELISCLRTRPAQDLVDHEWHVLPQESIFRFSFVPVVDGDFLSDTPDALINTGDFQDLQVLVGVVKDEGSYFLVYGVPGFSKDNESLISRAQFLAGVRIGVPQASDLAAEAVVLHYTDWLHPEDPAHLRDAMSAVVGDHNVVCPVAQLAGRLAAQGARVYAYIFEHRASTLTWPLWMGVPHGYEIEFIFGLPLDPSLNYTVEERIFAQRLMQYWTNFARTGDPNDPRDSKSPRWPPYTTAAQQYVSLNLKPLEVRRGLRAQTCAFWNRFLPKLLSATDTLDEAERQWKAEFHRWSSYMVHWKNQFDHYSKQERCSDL
# [18] = target: T4, Amine oxidase [flavin-containing] B (Homo sapiens, UniProt P27338); test: Inhibition of recombinant human MAO-B expressed in baculovirus infected BTI insect cells at 10 uM using kynuramine as substrate incubated for 30 mins by fluorescence assay relative to control; settings: 0.5 h
# T4 sequence (P27338 whole entry): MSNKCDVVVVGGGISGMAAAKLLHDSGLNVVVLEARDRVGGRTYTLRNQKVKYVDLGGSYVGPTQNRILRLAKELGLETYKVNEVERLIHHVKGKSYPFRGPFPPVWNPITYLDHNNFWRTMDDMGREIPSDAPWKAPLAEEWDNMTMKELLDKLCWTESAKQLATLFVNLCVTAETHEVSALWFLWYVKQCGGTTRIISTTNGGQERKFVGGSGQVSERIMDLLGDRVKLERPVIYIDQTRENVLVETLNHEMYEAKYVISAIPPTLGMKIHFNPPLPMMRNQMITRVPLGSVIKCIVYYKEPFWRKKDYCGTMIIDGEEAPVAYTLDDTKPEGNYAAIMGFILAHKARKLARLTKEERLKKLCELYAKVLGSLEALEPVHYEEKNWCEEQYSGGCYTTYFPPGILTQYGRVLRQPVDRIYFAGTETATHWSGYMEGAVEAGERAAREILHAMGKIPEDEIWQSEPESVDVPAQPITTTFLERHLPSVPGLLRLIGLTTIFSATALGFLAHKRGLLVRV
# [19] = Antioxidant activity assessed as inhibition of AAPH-induced peroxyl radical generation at 5 uM measured as trolox equivalent preincubated for 15 mins followed by AAPH addition measured every 60 secs for 90 mins by ORAC-FL assay; assay type: functional
smiles,measurement,setting,value
COc1cc2c(cc1OC)C(=O)/C(=C/c1ccc(CN3CCCCC3)c(O)c1)O2,Activity,[1],Active
same,"inhibition at 0.25 h, 50 µM",[2],12.9%
same,Ki,Acetylcholinesterase [3],12 nM
same,Activity,[4],Active
same,"Papp at 18 h, 100 ug/ml",[5],13.5 ×10⁻⁶ cm/s
same,inhibition,[6],45.1%
same,IC50,Acetylcholinesterase [7],37.1 nM
same,Activity,[8],Active
same,Activity,[9],0.5 molar ratio
same,Activity,PC-12 [10],Active
same,inhibition,[11],58.1%
same,IC50,Acetylcholinesterase [12],21.2 nM
same,Activity,PC-12 [13],Active
same,Activity,[14],inactive
same,Activity,PC-12 [15],Non-Toxic
same,inhibition at 10 µM,[16],15.3%
same,IC50,Acetylcholinesterase [17],8.78 nM
same,inhibition at 10 µM,[18],32%
same,Activity,[19],1.66 equiv

# Source: ChEMBL document CHEMBL4002586, “Aurone Mannich base derivatives as promising multifunctional agents with acetylcholinesterase inhibition, anti-β-amyloid aggragation and neuroprotective properties for the treatment of Alzheimer's disease” (Eur J Med Chem, 2017)
